Results from patent publication US20120190615A1, “METHODS AND COMPOSITIONS FOR INDUCING WEIGHT LOSS” (Sanford-Burnham Medical Research Institute, priority 2011, published 2012).

Columns and labels:
[1] = tested on: Mouse embryonic fibroblasts (MEFs); assay: Differentiation of mouse embryonic fibroblasts to a BAT lineage; assay type: cell-based; details: 3-day treatment, 7-10 days without induction cocktail, Oil Red O
Text: Mouse embryonic fibroblasts (MEFs) resemble mesenchymal cells in their ability to differentiate into various mesenchymal lineages. To determine whether OX triggers commitment of embryonic fibroblasts to a BAT lineage, MEFs isolated at […] were exposed to a differentiation protocol involving a 3-day treatment with Orexin A and BMP-7, and differentiation in the absence of the standard induction cocktail of IBMX, thiazolidone, and indomethacin for a further 7-10 days.

BMP signaling = BMP signaling in C3H10T1/2 cells (qPCR of Bmpr1a and BMP-7, Smad 1/5/8 phosphorylation); assay type: cell-based, mouse; details: 100 nM OX 3 days
Text: Bone morphogenic proteins, which are members of the TGF-β superfamily, control critical steps in development and differentiation and are important regulators of both WAT and BAT adipogenesis. BMP-2 and -4 induce white fat adipogenesis, while BMP-7 enhances brown fat traits. BMP-7 functions through interacting with BMP receptors, which mediate Smad 1/5/8 phosphorylation, to stimulate brown fat adipogenesis.

## orexin-A (EPLPDCCRQKTCSCRLYELLHGAGNHAAGILTL) [OX, human orexin A, cat; No. 24470, Anaspec]
[1]
  phenotype of treated MEFs: adopted a BAT phenotype
BMP signaling
  BMP-receptor 1A and BMP-7 mRNA expression: induced
